Our source for the IC50 values is publication PMC9321894, “Design and Anticancer Properties of New Water-Soluble Ruthenium–Cyclopentadienyl Complexes” (Pharmaceuticals, 2022).

The test has as its system MDAMB231 triple-negative breast cancer cells. The test can be described thus: MTT cytotoxicity assay, MDAMB231. Conditions: MDAMB231, 72 h, mean ± SD n = 3. It counts as cell-based, human. As to the method: The cytotoxic activity of all complexes was screened against A2780 (ovarian, Sigma-Aldrich, Lisboa, Portugal), MDAMB231 (breast, triple negative, ATCC), and HT29 (colon, ATCC) human cancer cells. Cells were grown in RPMI 1640 (A2780) or DMEM containing GlutaMax-I (MDAMB231), or McCoy’s (HT29) supplemented with 10% FBS and 1% penicillin/streptomycin (Invitrogen, Lisboa, Portugal). All cell lines were kept in a CO2 incubator (Heraeus, Hanau, Germany) with 5% CO2 at 37 °C in a humidified atmosphere. Cell viability was measured using the colorimetric MTT (3-(4,5-dimethylthiazol-2-yl)-2,5-diphenyltetrazolium bromide) assay. For the assays, cells were seeded in 200 μL of complete medium in 96-well plates and incubated at 37 °C for 24 h prior to complex treatment to allow cell adherence. The stock solutions in water (20 mM) of the complexes were freshly prepared and used for sequential dilutions in medium within the concentration range of 10^−10–10^−4 M. Cisplatin was also included in this study as a positive control. After careful removal of the medium, […] of a serial dilution of compounds in fresh medium was added to the cells, and incubation was carried out for 72 h at 37 °C. At the end of the treatment, the medium was discarded, and the cells were incubated with […] of an MTT solution in PBS (0.5 mg mL^−1). After 3 h incubation, medium was removed, and DMSO was added to solubilize the purple formazan crystals formed. The absorbance at 570 nm was measured using a plate spectrophotometer (Power Wave Xs, Bio-Tek, Winooski, VT, USA). Each experiment was repeated at least three times and each concentration tested in at least six replicates. The IC50 values were calculated from dose–response curves analyzed with the GraphPad Prism software (version 5.0).
Background: Tetrazolium assays rely on reduction of a dye to a coloured formazan, in cell work by metabolically active cells.

Usually IC50 stands for the midpoint of a concentration-inhibition curve. A higher IC50 goes with lower potency. In turn, “[RuCp(mTPPMSNa)(bopy)][CF3SO3] [Compound 6]” displayed an IC50 of 13.4 ± 0.4 µM.
